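Method: 48-hour compound exposure of cells in 96-well plates, five concentrations, linear interpolation of endpoints. Definition used: TGI = concentration required for complete inhibition of growth.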
Experiments:
Assay in all cases: NCI-60 cell line screen, 48 h
NCI-H522 lung = system: NCI-H522 lung
MOLT-4 leukemia = system: MOLT-4 leukemia
DU-145 prostate = system: DU-145 prostate
KM12 colon = system: KM12 colon
MDA-MB-435 = system: MDA-MB-435
TK-10 renal = system: TK-10 renal
SW-620 colon = system: SW-620 colon
MCF7 breast = system: MCF7 breast
HCT-15 colon = system: HCT-15 colon
UACC-257 melanoma = system: UACC-257 melanoma
T-47D breast = system: T-47D breast
MALME-3M melanoma = system: MALME-3M melanoma
NCI-H226 lung = system: NCI-H226 lung
OVCAR-5 ovarian = system: OVCAR-5 ovarian
SK-MEL-28 melanoma = system: SK-MEL-28 melanoma
HL-60(TB) leukemia = system: HL-60(TB) leukemia
A549 NSCLC = system: A549 NSCLC
U251 CNS = system: U251 CNS
SF-539 CNS = system: SF-539 CNS
BT-549 breast = system: BT-549 breast
SN12C renal = system: SN12C renal
COLO 205 colon = system: COLO 205 colon
SF-268 CNS = system: SF-268 CNS
HOP-92 NSCLC = system: HOP-92 NSCLC
SK-OV-3 ovarian = system: SK-OV-3 ovarian
OVCAR-8 ovarian = system: OVCAR-8 ovarian
SNB-19 CNS = system: SNB-19 CNS
K-562 leukemia = system: K-562 leukemia
786-0 renal = system: 786-0 renal
ACHN renal = system: ACHN renal
PC-3 prostate = system: PC-3 prostate
SR leukemia = system: SR leukemia
NCI-H23 lung = system: NCI-H23 lung
OVCAR-4 ovarian = system: OVCAR-4 ovarian
SK-MEL-5 melanoma = system: SK-MEL-5 melanoma
RXF 393 renal = system: RXF 393 renal
OVCAR-3 ovarian = system: OVCAR-3 ovarian
RPMI-8226 leukemia = system: RPMI-8226 leukemia
UO-31 renal = system: UO-31 renal
EKVX NSCLC = system: EKVX NSCLC
NCI-H460 lung = system: NCI-H460 lung
CAKI-1 renal = system: CAKI-1 renal
SK-MEL-2 melanoma = system: SK-MEL-2 melanoma
MDA-MB-231 breast = system: MDA-MB-231 breast
SNB-75 CNS = system: SNB-75 CNS
M14 melanoma = system: M14 melanoma
NCI/ADR-RES ovarian = system: NCI/ADR-RES ovarian
HCT-116 colon = system: HCT-116 colon
A498 renal = system: A498 renal
IGROV1 ovarian = system: IGROV1 ovarian
HOP-62 NSCLC = system: HOP-62 NSCLC
HS 578T breast = system: HS 578T breast
SF-295 CNS = system: SF-295 CNS
UACC-62 melanoma = system: UACC-62 melanoma
HT29 colon = system: HT29 colon

In the case of `Cn1c(C(C)(C)OC(=O)Oc2ccccc2)cnc1[N+](=O)[O-]`, the TGI (NCI-H522 lung) is reported as over 100 µM, the TGI (MOLT-4 leukemia) is reported as 45.8 µM and the TGI (DU-145 prostate) is reported as over 100 µM. It also gave a TGI (KM12 colon) of over 100 µM, a TGI (MDA-MB-435) of over 100 µM and a TGI (TK-10 renal) of over 100 µM. It also gave a TGI (SW-620 colon) of over 100 µM, a TGI (MCF7 breast) of over 100 µM and a TGI (HCT-15 colon) of over 100 µM. For the same compound, the TGI (UACC-257 melanoma) was over 100 µM, the TGI (T-47D breast) was over 100 µM and the TGI (MALME-3M melanoma) was over 100 µM. For the same compound, the TGI (NCI-H226 lung) was over 100 µM, the TGI (OVCAR-5 ovarian) was over 100 µM and the TGI (SK-MEL-28 melanoma) was over 100 µM. The TGI (HL-60(TB) leukemia) was over 100 µM, the TGI (A549 NSCLC) was over 100 µM and the TGI (U251 CNS) was over 100 µM. It also gave a TGI (SF-539 CNS) of over 100 µM, a TGI (BT-549 breast) of over 100 µM and a TGI (SN12C renal) of over 100 µM. For the same compound, the TGI (COLO 205 colon) was over 100 µM, the TGI (SF-268 CNS) was over 100 µM and the TGI (HOP-92 NSCLC) was over 100 µM. It also gave a TGI (SK-OV-3 ovarian) of over 100 µM, a TGI (OVCAR-8 ovarian) of over 100 µM and a TGI (SNB-19 CNS) of over 100 µM. It also gave a TGI (K-562 leukemia) of over 100 µM, a TGI (786-0 renal) of over 100 µM and a TGI (ACHN renal) of over 100 µM. The TGI (PC-3 prostate) was over 100 µM, the TGI (SR leukemia) was 51.7 µM and the TGI (NCI-H23 lung) was over 100 µM. The TGI (OVCAR-4 ovarian) was over 100 µM, the TGI (SK-MEL-5 melanoma) was over 100 µM and the TGI (RXF 393 renal) was over 100 µM. For the same compound, the TGI (OVCAR-3 ovarian) was over 100 µM, the TGI (RPMI-8226 leukemia) was 77.1 µM and the TGI (UO-31 renal) was over 100 µM. For the same compound, the TGI (EKVX NSCLC) was over 100 µM, the TGI (NCI-H460 lung) was over 100 µM and the TGI (CAKI-1 renal) was over 100 µM. The TGI (SK-MEL-2 melanoma) was over 100 µM, the TGI (MDA-MB-231 breast) was over 100 µM and the TGI (SNB-75 CNS) was over 100 µM. It also gave a TGI (M14 melanoma) of over 100 µM, a TGI (NCI/ADR-RES ovarian) of over 100 µM and a TGI (HCT-116 colon) of over 100 µM. For the same compound, the TGI (A498 renal) was over 100 µM, the TGI (IGROV1 ovarian) was over 100 µM and the TGI (HOP-62 NSCLC) was over 100 µM. It also gave a TGI (HS 578T breast) of over 100 µM, a TGI (SF-295 CNS) of over 100 µM and a TGI (UACC-62 melanoma) of over 100 µM. It also gave a TGI (HT29 colon) of over 100 µM.

Reference: PubChem BioAssay (NCI)
